Source: PubChem BioAssay AID1919014 (Molecular Pharmacology Branch, DTP, NCI, 2023)
Several values for one entry are separate records, joined by “and”; a condition that tells them apart may be missing. Equal entries are not always repeated.

System: NCI-H1341 complex spheroids, percent test/control
Assay: Anticancer human tumor NCI-H1341 cell line growth inhibition [AhR];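 note: spheroids exposed to agents for seven days before readout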
Details: for viability, T/C: stronger effect = lower value
Text: Multicellular complex tumor spheroid response to aryl hydrocarbon receptor antagonists in combination with a variety of drugs and investigational agents in selected tumor cell lines
The current study was undertaken to assess response to aryl hydrocarbon receptor antagonists in combination with standard-of-care drugs and investigational agents in solid tumor complex spheroid models. Complex spheroids include a stromal component modeled by human endothelial cells (HUVEC) and fibroblasts modeled by human mesenchymal stem cells (MSCs). The concentration ranges selected for each drug and investigational agent were based upon clinically achievable concentrations if the clinical Cmax of the agent was known.
Compounds. The drugs and investigational agents: BAY 2416964 (NSC825713), GNF351 (NSC835774), CH-223191 (NSC835775), CPI-455 (NSC825282), aza-TdCyd (NSC777586), decitabine (NSC127716), belinostat (NSC758774), entinostat (NSC756642), pevonedistat (NSC761192), tazemetostat (NSC777109), talazoparib (NSC765396), olaparib (NSC753686), selinexor (NSC780203), nedisertib (M3814, NSC802822), bortezomib (NSC756655), venetoclax (NSC766270), doxorubicin (NSC123127), elimusertib (BAY189344, NSC800525), ceralasertib (AZD6738, NSC777638), TAK-243 (NSC785004), alisertib (NSC759677), etoposide (NSC141540), topotecan (NSC609699), eribulin (NSC707389), gemcitabine (NSC613327), carboplatin (NSC241240), cisplatin (NSC119875), and SN-38 (NSC673596) were obtained from the National Cancer Institute (NCI) Developmental Therapeutics Program Chemical Repository (32). The FDA-approved anticancer drug set is available from the Developmental Therapeutics Program at https://dtp.cancer.gov/organization/dscb/obtaining/available plates.htm. […] The stock solutions were prepared in dimethyl sulfoxide (DMSO, Sigma-Aldrich, St. Louis, MO, cat. D2650), except for the platinum compounds which were prepared in saline (Quality Biological, Gaithersburg, MD, cat. 114-055-101), at 800-fold the tested concentration and stored at -70 degrees C prior to their use. All drugs and investigational agents were tested over a range starting from a high concentration at or near the clinical Cmax and decreasing in half-log increments. If the clinical Cmax for an agent had not been determined, the highest concentration tested was 10 microM (Table 1).
Cell Culture. All cells were maintained in an incubator at 37 degrees C and 5% CO2 with 95% humidity. The PDC lines were cultured according to standard operating procedures established by the NCI PDMR (https://pdmr.cancer.gov). Briefly, all PDCs were thawed and cultured in Matrigel-coated flasks prepared with a working solution of 1X Ham's F-12 nutrient mix, without supplementation (Invitrogen, Waltham, MA, cat. 11765054), 100 U/mL penicillin-streptomycin (Invitrogen, cat. 15140122), and 2.5% Matrigel (Corning Inc., Corning, NY, cat. 354248) for the first three passages. All PDCs were cultured in complete DMEM/F-12 media containing advanced DMEM/F-12 (Invitrogen, cat. 12634028), 4.9% defined fetal bovine serum, heat inactivated (HyClone Laboratories Inc., Logan, UT, cat. SH30070.03HI), 389 ng/mL hydrocortisone (Sigma-Aldrich, cat. H4001), 9.7 ng/mL human EGF recombinant protein (Invitrogen, cat. PHG0313), 23.4 microg/mL adenine (Sigma-Aldrich, cat. A2786), 97.3 U/mL penicillin-streptomycin (Invitrogen, cat. 15140122), 1.9 mM L-glutamine (Invitrogen, cat. 25030081), and 9.7 microM Y-27632 dihydrochloride (Tocris Bioscience, Bristol, United Kingdom, cat. 1254). The PDCs were cultured in complete DMEM/F12 media without 10 microM Y-27632 dihydrochloride for at least two passages prior to the screen. The established cell lines NCI-H1341 and […] were cultured in DMEM/F-12, HEPES (Invitrogen, cat. 11330032), 5% defined fetal bovine serum (HyClone Laboratories Inc., cat. SH30070.03), ITS premix universal culture supplement [insulin (5 microg/mL), transferrin (5 microg/mL), and selenious acid (5 ng/mL)] […]

[1] = curve of first compound, second compound 0.1 µM
[2] = curve of first compound, second compound 0.316 µM
[3] = curve of first compound, second compound 1 µM
[4] = curve of first compound, second compound 3.16 µM
[5] = curve of first compound, second compound 10 µM
[6] = second compound 0.1 µM, first compound 0.0316 µM
[7] = second compound 0.1 µM, first compound 0.1 µM
[8] = second compound 0.1 µM, first compound 0.316 µM
[9] = second compound 0.1 µM, first compound 1 µM
[10] = second compound 0.1 µM, first compound 3.16 µM
[11] = second compound 0.1 µM, first compound 10 µM
[12] = second compound 0.316 µM, first compound 0.0316 µM
[13] = second compound 0.316 µM, first compound 0.1 µM
[14] = second compound 0.316 µM, first compound 0.316 µM
[15] = second compound 0.316 µM, first compound 1 µM
[16] = second compound 0.316 µM, first compound 3.16 µM
[17] = second compound 0.316 µM, first compound 10 µM
[18] = second compound 1 µM, first compound 0.0316 µM
[19] = second compound 1 µM, first compound 0.1 µM
[20] = second compound 1 µM, first compound 0.316 µM
[21] = second compound 1 µM, first compound 1 µM
[22] = second compound 1 µM, first compound 3.16 µM
[23] = second compound 1 µM, first compound 10 µM
[24] = second compound 3.16 µM, first compound 0.0316 µM
[25] = second compound 3.16 µM, first compound 0.1 µM
[26] = second compound 3.16 µM, first compound 0.316 µM
[27] = second compound 3.16 µM, first compound 1 µM
[28] = second compound 3.16 µM, first compound 3.16 µM
[29] = second compound 3.16 µM, first compound 10 µM
[30] = second compound 10 µM, first compound 0.0316 µM
[31] = second compound 10 µM, first compound 0.1 µM
[32] = second compound 10 µM, first compound 0.316 µM
[33] = second compound 10 µM, first compound 1 µM
[34] = second compound 10 µM, first compound 3.16 µM
[35] = second compound 10 µM, first compound 10 µM

SMILES | IC50 [1] [µM] | IC50 [2] [µM] | IC50 [3] [µM] | IC50 [4] [µM] | IC50 [5] [µM] | viability, T/C [6] [%] | viability, T/C [7] [%] | viability, T/C [8] [%] | viability, T/C [9] [%] | viability, T/C [12] [%] | viability, T/C [13] [%] | viability, T/C [14] [%] | viability, T/C [15] [%] | viability, T/C [18] [%] | viability, T/C [19] [%] | viability, T/C [20] [%] | viability, T/C [21] [%] | viability, T/C [24] [%] | viability, T/C [25] [%] | viability, T/C [26] [%] | further results
CC(C)c1c(-c2ccccc2)nc2c(C#N)c[nH]n2c1=O + Cc1cncc(-c2nc(NCCc3c[nH]c4ccccc34)c3ncn(C(C)C)c3n2)c1 | > 10 | > 10 | > 10 | > 10 | < 0.0316 | 90.7 | 83.7 | 86.6 | 81.3 | 75.5 | 87.2 | 95.5 | 75.1 | 75.9 | 78.6 | 78.5 | 75.3 | 79.9 | 73.6 | 74.6 | viability, T/C [10]: 69.6%; viability, T/C [11]: 58%; viability, T/C [16]: 75.8%; viability, T/C [17]: 72.5%; viability, T/C [22]: 78.9%; viability, T/C [23]: 68%; viability, T/C [27]: 67.6%; viability, T/C [28]: 63.5%; viability, T/C [29]: 67.4%; viability, T/C [30]: 18%; viability, T/C [31]: 20.1%; viability, T/C [32]: 21%; viability, T/C [33]: 20.2%; viability, T/C [34]: 16.2%; viability, T/C [35]: 19.5%
CC1COCCN1c1cc(-c2ccnn2C)c2ccnc(-c3ccn[nH]3)c2n1 (configuration not stated) + Cc1cncc(-c2nc(NCCc3c[nH]c4ccccc34)c3ncn(C(C)C)c3n2)c1 | 0.0413 | 0.0315 | 0.0354 | 0.031 | < 0.00316 | 57.8 | 25.1 | 25.7 | 17.8 | 49.8 | 26.8 | 19.8 | 18.7 | 51.6 | 26.8 | 23.9 | 16.7 | 50 | 32.1 | 24.8 | viability, T/C (second compound 0.1 µM, first compound 0.00316 µM): 95.1%; viability, T/C (second compound 0.1 µM, first compound 0.01 µM): 97%; viability, T/C (second compound 0.316 µM, first compound 0.00316 µM): 79.9%; viability, T/C (second compound 0.316 µM, first compound 0.01 µM): 94.4%; viability, T/C (second compound 1 µM, first compound 0.00316 µM): 77.5%; viability, T/C (second compound 1 µM, first compound 0.01 µM): 79.4%; viability, T/C (second compound 3.16 µM, first compound 0.00316 µM): 76%; viability, T/C (second compound 3.16 µM, first compound 0.01 µM): 66.2%; viability, T/C [27]: 16.9%; viability, T/C (second compound 10 µM, first compound 0.00316 µM): 21%; viability, T/C (second compound 10 µM, first compound 0.01 µM): 19%; viability, T/C [30]: 16.5%; viability, T/C [31]: 15.2%; viability, T/C [32]: 12.2%; viability, T/C [33]: 10.1%
Nc1ccccc1NC(=O)c1ccc(CNC(=O)OCc2cccnc2)cc1 |  |  |  |  |  |  |  |  |  |  |  |  |  |  |  |  |  |  |  |  | viability, T/C (compound 0.0316 µM): 86.1% and 87.6% and 78.7%; viability, T/C (compound 0.1 µM): 92.3% and 84.5% and 75%; viability, T/C (compound 0.316 µM): 59.9% and 74.8% and 27.3%; viability, T/C (compound 1 µM): 24.3% and 40.5% and 16.6%; viability, T/C (compound 3.16 µM): 5.76% and 6.13% and 5.26%; viability, T/C (compound 10 µM): 0.69% and 0.9% and 0.3%; IC50 (curve of compound): 0.457 µM and 0.718 µM and 0.183 µM
CC1(C)CCC(CN2CCN(c3ccc(C(=O)NS(=O)(=O)c4ccc(NCC5CCOCC5)c([N+](=O)[O-])c4)c(Oc4cnc5[nH]ccc5c4)c3)CC2)=C(c2ccc(Cl)cc2)C1 + CC(CO)NC(=O)c1cc(-c2ccc(Cl)cc2)nn(-c2cnn(C)c2)c1=O | 2.37 | 2.15 | 1.71 | 1.81 | 1.24 | 66.6 | 74.9 | 71.8 | 71.1 | 76.7 | 76.5 | 72.3 | 63.8 | 83.4 | 74.4 | 65.1 | 61.4 | 76.5 | 88.8 | 83.8 | viability, T/C [10]: 43%; viability, T/C [11]: 12.9%; viability, T/C [16]: 43.1%; viability, T/C [17]: 11.7%; viability, T/C [22]: 41.4%; viability, T/C [23]: 11.3%; viability, T/C [27]: 63%; viability, T/C [28]: 36.5%; viability, T/C [29]: 12.4%; viability, T/C [30]: 65.7%; viability, T/C [31]: 84.7%; viability, T/C [32]: 65.6%; viability, T/C [33]: 54.1%; viability, T/C [34]: 30.2%; viability, T/C [35]: 9.65%
COc1cc(C2c3cc4c(cc3C(OC3OC5COC(C)OC5C(O)C3O)C3COC(=O)C23)OCO4)cc(OC)c1O (configuration not stated) + Cc1ccccc1N=Nc1ccc(NC(=O)c2ccnn2C)c(C)c1 | 0.834 | 10 | 0.725 | 0.255 | < 0.0316 | 92.2 | 82.4 | 56 | 46 | 71.3 | 79 | 57.1 | 50.4 | 90.1 | 88.5 | 58.2 | 50.2 | 66.6 | 68.4 | 43.3 | viability, T/C [10]: 46.3%; viability, T/C [11]: 53.4%; viability, T/C [16]: 54.6%; viability, T/C [17]: 48.9%; viability, T/C [22]: 44.7%; viability, T/C [23]: 44.5%; viability, T/C [27]: 43.5%; viability, T/C [28]: 46.9%; viability, T/C [29]: 50.2%; viability, T/C [30]: 45.2%; viability, T/C [31]: 46.6%; viability, T/C [32]: 57.1%; viability, T/C [33]: 44.6%; viability, T/C [34]: 40.1%; viability, T/C [35]: 49.9%
